Experimental data: US12077503B2, “Substituted cyclic amides and their use as herbicides” (FMC CORPORATION, priority 2015, dated 2024)

Experiments:
Assay type in all cases: in vivo
Kochia (Kochia scoparia) [1] = assay: Test A preemergence; details: Bassia scoparia, pre-emergence, 240 h, 0 to 100 scale where 0 is no effect and 100 is complete control, read-out: Kochia plant response rating; for pest or weed control at 31 g/ha: 31 g ai/ha, Preemergence; for pest or weed control at 125 g/ha: 125 g ai/ha, preemergence, approx. 10 d
How it was run: (§1)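 Preemergence soil spray on seeded pots or post-emergence spray on 1–2 leaf plants, in loam–sand blend. Greenhouse ~10 d. Visual rating 0–100 against untreated plants.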

[2] = tested on: barnyardgrass (Echinochloa crus-galli); assay: Test A preemergence; details: Echinochloa crus-galli, pre-emergence, 240 h, 0 to 100 scale where 0 is no effect and 100 is complete control, read-out: Barnyardgrass plant response rating; for pest or weed control at 31 g/ha: 31 g ai/ha, Preemergence; for pest or weed control at 125 g/ha: 125 g ai/ha, preemergence, approx. 10 d
How it was run: as §1

[3] = tested on: giant foxtail (Setaria faberii); assay: Test A preemergence; details: Setaria faberi, pre-emergence, 240 h, 0 to 100 scale where 0 is no effect and 100 is complete control, read-out: Foxtail, Giant plant response rating; for pest or weed control at 31 g/ha: 31 g ai/ha, Preemergence; for pest or weed control at 125 g/ha: 125 g ai/ha, preemergence, approx. 10 d
How it was run: as §1

[4] = tested on: pigweed (Amaranthus retroflexus); assay: Test A preemergence; details: Amaranthus retroflexus, pre-emergence, 240 h, 0 to 100 scale where 0 is no effect and 100 is complete control, read-out: Pigweed plant response rating; for pest or weed control at 31 g/ha: 31 g ai/ha, Preemergence; for pest or weed control at 125 g/ha: 125 g ai/ha, preemergence, approx. 10 d
[5] = tested on: ragweed (common ragweed, Ambrosia elatior); assay: Test A preemergence; details: Ambrosia artemisiifolia, pre-emergence, 240 h, 0 to 100 scale where 0 is no effect and 100 is complete control, read-out: Ragweed plant response rating; for pest or weed control at 31 g/ha: 31 g ai/ha, Preemergence; for pest or weed control at 125 g/ha: 125 g ai/ha, preemergence, approx. 10 d
How it was run: as §1

[6] = tested on: ryegrass, Italian (Italian ryegrass, Lolium multiflorum); assay: Test A preemergence; details: Lolium multiflorum, pre-emergence, 240 h, 0 to 100 scale where 0 is no effect and 100 is complete control, read-out: Ryegrass, Italian plant response rating; for pest or weed control at 31 g/ha: 31 g ai/ha, Preemergence; for pest or weed control at 125 g/ha: 125 g ai/ha, preemergence, approx. 10 d
How it was run: as §1

[7] = tested on: Galium (catchweed bedstraw, Galium aparine); assay: Test A postemergence; details: Galium, post-emergence, 240 h; for pest or weed control at 125 g/ha: 125 g ai/ha, postemergence, visual injury on 0 to 100 scale (0 no effect, 100 complete control), approx. 10 d, read-out: Galium plant response rating; for pest or weed control at 31 g/ha: Postemergence, 31 g ai/ha, visual injury after approx. 10 d, 0 to 100 scale, 0 no effect, 100 complete control, read-out: Plant response rating, Galium
How it was run: as §1

Kochia (Kochia scoparia) [8] = assay: Test A postemergence; details: Bassia scoparia, post-emergence, 240 h; for pest or weed control at 125 g/ha: 125 g ai/ha, postemergence, visual injury on 0 to 100 scale (0 no effect, 100 complete control), approx. 10 d, read-out: Kochia plant response rating; for pest or weed control at 31 g/ha: Postemergence, 31 g ai/ha, visual injury after approx. 10 d, 0 to 100 scale, 0 no effect, 100 complete control, read-out: Plant response rating, Kochia
How it was run: as §1

[9] = tested on: barnyardgrass (Echinochloa crus-galli); assay: Test A postemergence; details: Echinochloa crus-galli, post-emergence, 240 h; for pest or weed control at 125 g/ha: 125 g ai/ha, postemergence, visual injury on 0 to 100 scale (0 no effect, 100 complete control), approx. 10 d, read-out: Barnyardgrass plant response rating; for pest or weed control at 31 g/ha: Postemergence, 31 g ai/ha, visual injury after approx. 10 d, 0 to 100 scale, 0 no effect, 100 complete control, read-out: Plant response rating, Barnyardgrass
How it was run: as §1

[10] = tested on: blackgrass (Alopecurus myosuroides); assay: Test A postemergence; details: Alopecurus myosuroides, post-emergence, 240 h; for pest or weed control at 125 g/ha: 125 g ai/ha, postemergence, visual injury on 0 to 100 scale (0 no effect, 100 complete control), approx. 10 d, read-out: Blackgrass plant response rating; for pest or weed control at 31 g/ha: Postemergence, 31 g ai/ha, visual injury after approx. 10 d, 0 to 100 scale, 0 no effect, 100 complete control, read-out: Plant response rating, Blackgrass
How it was run: as §1

corn (Zea mays) = assay: Test A postemergence; details: Zea mays, post-emergence, 240 h; for plant injury at 125 g/ha: 125 g ai/ha, postemergence, visual injury on 0 to 100 scale (0 no effect, 100 complete control), approx. 10 d, read-out: Corn plant response rating; for Corn plant response rating (crop injury, 0 = no effect, 100 = complete kill) at 31 g/ha: Postemergence, 31 g ai/ha, visual injury after approx. 10 d, 0 to 100 scale, 100 complete control
How it was run: as §1

[11] = tested on: giant foxtail (Setaria faberii); assay: Test A postemergence; details: Setaria faberi, post-emergence, 240 h; for pest or weed control at 125 g/ha: 125 g ai/ha, postemergence, visual injury on 0 to 100 scale (0 no effect, 100 complete control), approx. 10 d, read-out: Foxtail, Giant plant response rating; for pest or weed control at 31 g/ha: Postemergence, 31 g ai/ha, visual injury after approx. 10 d, 0 to 100 scale, 0 no effect, 100 complete control, read-out: Plant response rating, Foxtail, Giant
How it was run: as §1

[12] = tested on: pigweed (Amaranthus retroflexus); assay: Test A postemergence; details: Amaranthus retroflexus, post-emergence, 240 h; for pest or weed control at 125 g/ha: 125 g ai/ha, postemergence, visual injury on 0 to 100 scale (0 no effect, 100 complete control), approx. 10 d, read-out: Pigweed plant response rating; for pest or weed control at 31 g/ha: Postemergence, 31 g ai/ha, visual injury after approx. 10 d, 0 to 100 scale, 0 no effect, 100 complete control, read-out: Plant response rating, Pigweed
How it was run: as §1

[13] = tested on: ragweed (common ragweed, Ambrosia elatior); assay: Test A postemergence; details: Ambrosia artemisiifolia, post-emergence, 240 h; for pest or weed control at 125 g/ha: 125 g ai/ha, postemergence, visual injury on 0 to 100 scale (0 no effect, 100 complete control), approx. 10 d, read-out: Ragweed plant response rating; for pest or weed control at 31 g/ha: Postemergence, 31 g ai/ha, visual injury after approx. 10 d, 0 to 100 scale, 0 no effect, 100 complete control, read-out: Plant response rating, Ragweed
How it was run: as §1

[14] = tested on: ryegrass, Italian (Italian ryegrass, Lolium multiflorum); assay: Test A postemergence; details: Lolium multiflorum, post-emergence, 240 h; for pest or weed control at 125 g/ha: 125 g ai/ha, postemergence, visual injury on 0 to 100 scale (0 no effect, 100 complete control), approx. 10 d, read-out: Ryegrass, Italian plant response rating; for pest or weed control at 31 g/ha: Postemergence, 31 g ai/ha, visual injury after approx. 10 d, 0 to 100 scale, 0 no effect, 100 complete control, read-out: Plant response rating, Ryegrass, Italian
How it was run: as §1

[15] = tested on: wheat (Triticum aestivum); assay: Test A postemergence; details: Triticum aestivum, post-emergence, 240 h; for plant injury at 125 g/ha: 125 g ai/ha, postemergence, visual injury on 0 to 100 scale (0 no effect, 100 complete control), approx. 10 d, read-out: Wheat plant response rating; for plant injury at 31 g/ha: Postemergence, 31 g ai/ha, visual injury after approx. 10 d, 0 to 100 scale, 0 no effect, 100 complete control, read-out: Plant response rating, Wheat
How it was run: as §1

[16] = tested on: barnyardgrass (Echinochloa crus-galli); assay: Test B flooded paddy test; details: Echinochloa crus-galli, 250 g ai/ha, Flood; 0 to 100 scale where 0 is no effect and 100 is complete control; read-out: Barnyardgrass plant response rating
How it was run: (§2)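 Response scored visually against untreated controls, 0 = no effect and 100 = complete control, 13–15 d after treatment in the greenhouse. Compounds added to paddy water held 3 cm above soil surface. Treatment given at 2-leaf stage.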

[17] = tested on: ducksalad (Heteranthera limosa); assay: Test B flooded paddy test; details: Heteranthera limosa, 250 g ai/ha, Flood; 0 to 100 scale where 0 is no effect and 100 is complete control; read-out: Ducksalad plant response rating
How it was run: as §2

rice (Oryra sativa) = assay: Test B flooded paddy test; details: Oryza sativa, 250 g ai/ha, Flood; 0 to 100 scale where 0 is no effect and 100 is complete control; read-out: Rice plant response rating
How it was run: as §2

[18] = tested on: sedge, umbrella (small-flower umbrella sedge, Cyperus difformis); assay: Test B flooded paddy test; details: Cyperus difformis, 250 g ai/ha, Flood; 0 to 100 scale where 0 is no effect and 100 is complete control; read-out: Sedge, Umbrella plant response rating
How it was run: as §2

`CN1C[C@H](c2csc3c2CCC3)[C@@H](C(=O)Nc2ccc(F)c(F)c2F)C1=O` [Compound 1081] showed a pest or weed control at 31 g/ha (Kochia (Kochia scoparia) [1]) of 20%, a pest or weed control at 125 g/ha (Kochia (Kochia scoparia) [1]) of 30% and a pest or weed control at 31 g/ha [2] of 10%. It also gave a pest or weed control at 125 g/ha [2] of 90%, a pest or weed control at 31 g/ha [3] of 100% and a pest or weed control at 125 g/ha [3] of 100%. It also gave a pest or weed control at 31 g/ha [4] of 0%, a pest or weed control at 125 g/ha [4] of 0% and a pest or weed control at 31 g/ha [5] of 0%. It also gave a pest or weed control at 125 g/ha [5] of 0%, a pest or weed control at 31 g/ha [6] of 0% and a pest or weed control at 125 g/ha [6] of 0%. The pest or weed control at 125 g/ha [7] was 20%, the pest or weed control at 31 g/ha [7] was 0% and the pest or weed control at 125 g/ha (Kochia (Kochia scoparia) [8]) was 0%. The pest or weed control at 31 g/ha (Kochia (Kochia scoparia) [8]) was 0%, the pest or weed control at 125 g/ha [9] was 90% and the pest or weed control at 31 g/ha [9] was 30%. For the same compound, the pest or weed control at 125 g/ha [10] was 0%, the pest or weed control at 31 g/ha [10] was 0% and the plant injury at 125 g/ha (corn (Zea mays)) was 20%. The Corn plant response rating (crop injury, 0 = no effect, 100 = complete kill) at 31 g/ha (corn (Zea mays)) was 0%, the pest or weed control at 125 g/ha [11] was 80% and the pest or weed control at 31 g/ha [11] was 10%. The pest or weed control at 125 g/ha [12] was 0%, the pest or weed control at 31 g/ha [12] was 0% and the pest or weed control at 125 g/ha [13] was 0%. The pest or weed control at 31 g/ha [13] was 0%, the pest or weed control at 125 g/ha [14] was 0% and the pest or weed control at 31 g/ha [14] was 0%. It also gave a plant injury at 125 g/ha [15] of 20%, a plant injury at 31 g/ha [15] of 0% and a pest or weed control at 250 g/ha [16] of 90%. For the same compound, the pest or weed control at 250 g/ha [17] was 80%, the pest or weed control at 250 g/ha (rice (Oryra sativa)) was 40% and the pest or weed control at 250 g/ha [18] was 0%.
`O=C(Nc1ccc(F)c(F)c1F)[C@H]1C(=O)N(O)CC[C@@H]1c1ccc(C(F)(F)F)cc1` [Compound 1108] gave a pest or weed control at 31 g/ha (Kochia (Kochia scoparia) [1]) of 0%, a pest or weed control at 125 g/ha (Kochia (Kochia scoparia) [1]) of 0% and a pest or weed control at 31 g/ha [2] of 0%. It also gave a pest or weed control at 125 g/ha [2] of 0%, a pest or weed control at 31 g/ha [3] of 0% and a pest or weed control at 125 g/ha [3] of 0%. The pest or weed control at 31 g/ha [4] was 0%, the pest or weed control at 125 g/ha [4] was 0% and the pest or weed control at 31 g/ha [5] was 0%. It also gave a pest or weed control at 125 g/ha [5] of 0%, a pest or weed control at 31 g/ha [6] of 0% and a pest or weed control at 125 g/ha [6] of 0%. It also gave a pest or weed control at 125 g/ha [7] of 0%, a pest or weed control at 31 g/ha [7] of 0% and a pest or weed control at 125 g/ha (Kochia (Kochia scoparia) [8]) of 0%. For the same compound, the pest or weed control at 31 g/ha (Kochia (Kochia scoparia) [8]) was 0%, the pest or weed control at 125 g/ha [9] was 0% and the pest or weed control at 31 g/ha [9] was 0%. The pest or weed control at 125 g/ha [10] was 0%, the pest or weed control at 31 g/ha [10] was 0% and the plant injury at 125 g/ha (corn (Zea mays)) was 0%. The Corn plant response rating (crop injury, 0 = no effect, 100 = complete kill) at 31 g/ha (corn (Zea mays)) was 0%, the pest or weed control at 125 g/ha [11] was 0% and the pest or weed control at 31 g/ha [11] was 0%. For the same compound, the pest or weed control at 125 g/ha [12] was 0%, the pest or weed control at 31 g/ha [12] was 0% and the pest or weed control at 125 g/ha [13] was 0%. For the same compound, the pest or weed control at 31 g/ha [13] was 0%, the pest or weed control at 125 g/ha [14] was 0% and the pest or weed control at 31 g/ha [14] was 0%. The plant injury at 125 g/ha [15] was 0%, the plant injury at 31 g/ha [15] was 0% and the pest or weed control at 250 g/ha [16] was 40%. It also gave a pest or weed control at 250 g/ha [17] of 85%, a pest or weed control at 250 g/ha (rice (Oryra sativa)) of 20% and a pest or weed control at 250 g/ha [18] of 75%.
